Test results reported in BindingDB's records for doi:10.1124/jpet.103.054775 (Cornell University, 2003).
pKi: −log10 of the molar value. Where “and” joins values, the source holds several entries; their conditions need not be identical. Equal entries are not always repeated. Non-standard residues stand in square brackets, D forms with d. Residues, ends and D or L forms follow the SMILES beside them. Dmt = Cc1cc(O)cc(C)c1C[C@H](N)C(=O)O

molecular target: Mu-type opioid receptor (Mus musculus, UniProt P42866)
Sequence (P42866 whole entry): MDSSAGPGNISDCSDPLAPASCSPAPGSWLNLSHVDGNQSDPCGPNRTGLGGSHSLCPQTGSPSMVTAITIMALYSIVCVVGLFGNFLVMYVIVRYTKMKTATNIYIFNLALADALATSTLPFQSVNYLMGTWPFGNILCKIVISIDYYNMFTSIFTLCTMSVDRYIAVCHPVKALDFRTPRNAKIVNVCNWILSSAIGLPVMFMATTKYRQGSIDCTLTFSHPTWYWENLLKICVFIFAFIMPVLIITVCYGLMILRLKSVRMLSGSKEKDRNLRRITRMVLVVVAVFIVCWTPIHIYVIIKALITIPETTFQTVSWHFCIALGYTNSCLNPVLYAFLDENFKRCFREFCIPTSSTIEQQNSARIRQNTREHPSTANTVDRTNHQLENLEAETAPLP

Row | Structure (SMILES) | pKi
1 | C[C@@H](NC(=O)[C@@H](N)Cc1ccc(O)cc1)C(=O)N[C@@H](Cc1ccccc1)C(=O)N[C@@H](Cc1ccccc1)C(N)=O (H-Y[dA]FF-NH2) | 8.82 and 8.46
2 | NCCC[C@H](NC(=O)[C@H](Cc1ccccc1)NC(=O)[C@@H](CCCN=C(N)N)NC(=O)[C@@H](N)Cc1ccc(O)cc1)C(N)=O [5-amino-2-{1-[1-[1-amino-2-(4-hydroxyphenyl)ethylcarboxamido]-4-amino(imino)methylamino-(1R)-butylcarboxamido]-2-phenylethylcarboxamido}pentanamide] | 8.92 and 7.98
3 | Cc1cc(O)cc(C)c1C[C@H](N)C(=O)N[C@H](C)C(=O)N[C@@H](Cc1ccccc1)C(=O)N[C@@H](Cc1ccccc1)C(N)=O [Dmt-d-Ala-Phe-Phe-NH2] (H-[Dmt][dA]FF-NH2) | 9.76
4 | Cc1cc(O)cc(C)c1C[C@H](N)C(=O)N[C@H](CCCN=C(N)N)C(=O)N[C@@H](Cc1ccccc1)C(=O)N[C@@H](CN)C(N)=O [Dmt-d-Arg-Phe-A2pr-NH2] | 10.20 and 9.84
5 | Cc1cc(O)cc(C)c1C[C@H](N)C(=O)N[C@H](CCCN=C(N)N)C(=O)N[C@@H](Cc1ccccc1)C(=O)N[C@@H](CCCN)C(N)=O [Dmt-d-Arg-Phe-Orn-NH2] | 9.82 and 9.79
6 | NCCCC[C@H](NC(=O)[C@H](Cc1ccccc1)NC(=O)[C@@H](CCCN=C(N)N)NC(=O)[C@@H](N)Cc1ccc(O)cc1)C(N)=O [NSC_122222] | 8.77 and 7.89
7 | NC[C@H](NC(=O)[C@H](Cc1ccccc1)NC(=O)[C@@H](CCCN=C(N)N)NC(=O)[C@@H](N)Cc1ccc(O)cc1)C(N)=O [Tyr-d-Arg-Phe-A2pr-NH2] | 8.59 and 7.90
